# From patent US7678913B2, “Ureas as factor Xa inhibitors” (Portola Pharmaceuticals, Inc., priority 2004, dated 2010)
# Molecular target: T1, human plasma protein factor Xa (Homo sapiens, UniProt P00742)
# T1 construct: measure proteolytic activity of the enzyme (factor Xa); purchased Haematologic Technologies (Essex Junction, Vt.); host or cells: human plasma
# Assay: Factor Xa IC50 determination (cleavage of chromogenic substrate S-2765)
# Assay type: biochemical
# Conditions: fXa 1 nM, S-2765 100 μM, Tris buffered saline pH 7.4, room temperature
# Description: This example illustrates methods for evaluating the compounds of the invention, along with results obtained for such assays. The in vitro and in vivo Factor Xa isoform activities of the inventive compounds can be determined by various procedures known in the art, such as a test for their ability to inhibit the activity of the Factor Xa isoform. […] The IC50 value is the concentration (in nM) of the compound required to provide 50% inhibition of Factor Xa isoform.
# An in vitro assay for detecting and measuring inhibition activity against Factor Xa is as follows:
# • The substrate S-2765 (Z-D-Arg-Gly-Arg-pNA.HCl) was obtained from Diapharma (West Chester, Ohio). Enzyme: • The human plasma protein factor Xa was purchased from Haematologic Technologies (Essex Junction, Vt.). Methods
# All assays, which are performed in 96-well microtiter plates, measure proteolytic activity of the enzyme (factor Xa) by following cleavage of paranitroanilide substrate. The assay buffer used for proteolytic assays was Tris buffered saline (20 mM Tris, 150 mM NaCl, 5 mM CaCl2, 0.1% Bovine serum albumin (BSA), 5% Dimethly Sulfoxide (DMSO) pH 7.4). In a 96-well microtiter plate, inhibitor was serially diluted to give a range of concentrations from 0.01 nM to 10 μM (final). Duplicate sets of wells were assayed and control wells without inhibitor were included. Enzyme was added to each well,(fXa concentration=1nM), the plate was shaken for 5 seconds and then incubated for 5 minutes at room temperature. S2765 was added (100 μM final) and the plate was shaken for 5 seconds (final liquid volume in each well was 200 μl). The degree of substrate hydrolysis was measured at 405 nm on a Thermomax plate reader (Molecular Devices, Sunnyvale, Calif.) for 2 minutes. The initial velocities (mOD/min), for each range of inhibitor concentrations, were fitted to a four parameter equation using Softmax data analysis software. The parameter C, derived from the resulting curve-fit, corresponded to the concentration for half maximal inhibition (IC50).
# T1 sequence (P00742 235-488 limits assumed): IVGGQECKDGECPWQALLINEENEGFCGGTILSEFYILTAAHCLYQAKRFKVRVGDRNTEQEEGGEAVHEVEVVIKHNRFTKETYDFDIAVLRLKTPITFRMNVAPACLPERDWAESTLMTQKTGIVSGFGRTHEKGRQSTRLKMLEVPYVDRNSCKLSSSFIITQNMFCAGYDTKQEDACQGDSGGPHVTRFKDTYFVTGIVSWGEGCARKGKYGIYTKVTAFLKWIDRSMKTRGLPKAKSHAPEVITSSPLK
# T1 sequence (P00742 41-179 partner limits assumed): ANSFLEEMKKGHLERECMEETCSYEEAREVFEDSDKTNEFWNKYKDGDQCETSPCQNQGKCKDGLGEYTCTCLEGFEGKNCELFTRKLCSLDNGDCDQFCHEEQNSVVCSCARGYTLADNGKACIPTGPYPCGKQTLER
row,IC50 [nM],SMILES
1,100 to 500,"O=C(Nc1ccc(Cl)cc1)NC(C(=O)Nc1ccc(-c2cc[n+]([O-])cc2)cc1)c1ccccc1F (stereo not drawn) [Example 50, N-[4-(N-oxo-pyridin-4-yl)phenyl]-2-(2-fluorophenyl)-2-(4-chlorophenylaminocarbonylamino)-acetamide]"
2,≤ 100,"O=C(Nc1ccc(Cl)cc1)NC(C(=O)Nc1ccc(-c2cccc[n+]2[O-])cc1)c1ccccc1F (stereo not drawn) [Example 51, N-[4-(N-oxo-pyridin-2-yl)phenyl]-2-(2-fluorophenyl)-2-(4-chlorophenylaminocarbonylamino)-acetamide]"
3,≤ 100,"O=C(Nc1ccc(Br)cc1)NC(C(=O)Nc1ccc(-c2cccc[n+]2[O-])cc1)c1ccccc1F (stereo not drawn) [Example 52, N-[4-(N-oxo-pyridin-2-yl)phenyl]-2-(2-fluorophenyl)-2-(4-bromophenylaminocarbonylamino)-acetamide]"
4,≥ 500,"O=C(Nc1ccc(Cl)cc1)NC(C(=O)NCC1CCNCC1)c1ccccc1F (stereo not drawn) [Example 53, N-(piperidin-4-ylmethyl)-2-(2-fluorophenyl)-2-(4-chlorophenylaminocarbonylamino)-acetamide]"
5,100 to 500,"CC(=N)N1CCC(CNC(=O)C(NC(=O)Nc2ccc(Cl)cc2)c2ccccc2F)CC1 (stereo not drawn) [Example 54, N-[(N-acetimidyl-piperidin-4-yl)methyl]-2-(2-fluorophenyl)-2-(4-chlorophenylaminocarbonylamino)-acetamide]"
6,≤ 100,"CN(C)Cc1ccccc1-c1ccc(NC(=O)C(NC(=O)Nc2ccc(Cl)cc2)c2ccccc2F)cc1 (stereo not drawn) [Example 55, N-[4-(2-dimethylaminomethyl-phenyl)phenyl]-2-(2-fluorophenyl)-2-(4-chlorophenylaminocarbonylamino)-acetamide]"
7,≤ 100,"CN(C)Cc1ccccc1-c1ccc(NC(=O)C(NC(=O)Nc2ccc(Cl)cc2)c2ccccc2F)c(F)c1 (stereo not drawn) [Example 56, N-[4-(2-dimethylaminomethyl-phenyl)-2-fluorophenyl]-2-(2-fluorophenyl)-2-(4-chlorophenylaminocarbonylamino)-acetamide]"
8,≤ 100,"CN(C)Cc1ccccc1-c1ccc(NC(=O)C(NC(=O)Nc2ccc(Br)cc2)c2ccccc2F)c(F)c1 (stereo not drawn) [Example 57, N-[4-(2-dimethylaminomethyl-phenyl)-2-fluorophenyl]-2-(2-fluorophenyl)-2-(4-bromophenylaminocarbonylamino)-acetamide]"
9,≤ 100,"CN(C)Cc1nccn1-c1ccc(NC(=O)C(NC(=O)Nc2ccc(Cl)cc2)c2ccccc2F)c(F)c1 (stereo not drawn) [Example 58, N-[4-(2-dimethylaminomethyl-imidazol-1-yl)-2-fluorophenyl]-2-(2-fluorophenyl)-2-(4-chlorophenylaminocarbonylamino)-acetamide]"
10,≤ 100,CN1CCN=C1c1ccc(NC(=O)[C@H](CC(=O)OCc2ccccc2)NC(=O)Nc2ccc(Cl)cc2)cc1 [Example 59]
11,≥ 500,"CN1CCN=C1c1ccc(NC(=O)[C@H](CC(=O)O)NC(=O)Nc2ccc(Cl)cc2)cc1 [Example 60, (2S) N-[4-(1-methyl-4,5-dihydro-1H-imidazol-2-yl)phenyl]-2-carboxymethyl-2-(4-chlorophenylaminocarbonylamino)-acetamide]"
12,100 to 500,"CN1CCN=C1c1ccc(NC(=O)[C@@H](CC(=O)OCc2ccccc2)NC(=O)Nc2ccc(Cl)cc2)cc1 [Example 61, (2R) N-[4-(1-methyl-4,5-dihydro-1H-imidazol-2-yl)phenyl]-2-benzyloxycarbonylmethyl-2-(4-chlorophenylaminocarbonylamino)-acetamide]"
13,100 to 500,"CN1CCN=C1c1ccc(NC(=O)[C@@H](CC(=O)O)NC(=O)Nc2ccc(Cl)cc2)cc1 [Example 62, (2R) N-[4-(1-methyl-4,5-dihydro-1H-imidazol-2-yl)phenyl]-2-carboxymethyl-2-(4-chlorophenylaminocarbonylamino)-acetamide]"
14,≥ 500,"CN(C)C(=O)CC(NC(=O)Nc1ccc(Cl)cc1)C(=O)Nc1ccc(C2=NCCN2C)cc1 (stereo not drawn) [Example 63, N-[4-(1-methyl-4,5-dihydro-1H-imidazol-2-yl)phenyl]-2-dimethylaminocarbonylmethyl-2-(4-chlorophenylaminocarbonylamino)-acetamide]"
15,≥ 500,"CN1CCN=C1c1ccc(NC(=O)C(CC(=O)N2CCCCC2)NC(=O)Nc2ccc(Cl)cc2)cc1 (stereo not drawn) [Example 64, N-[4-(1-methyl-4,5-dihydro-1H-imidazol-2-yl)phenyl]-2-(piperidin-1-ylcarbonylmethyl)-2-(4-chlorophenylaminocarbonylamino)-acetamide]"
16,≥ 500,"CN1CCN=C1c1ccc(NC(=O)C(CC(=O)N2CCOCC2)NC(=O)Nc2ccc(Cl)cc2)cc1 (stereo not drawn) [Example 65, N-[4-(1-methyl-4,5-dihydro-1H-imidazol-2-yl)phenyl]-2-(morpholin-4-ylcarbonylmethyl)-2-(4-chlorophenylaminocarbonylamino)-acetamide]"
17,≥ 500,"CN1CCN=C1c1ccc(NC(=O)C(CC(=O)N2CCCC2)NC(=O)Nc2ccc(Cl)cc2)cc1 (stereo not drawn) [Example 66, N-[4-(1-methyl-4,5-dihydro-1H-imidazol-2-yl)phenyl]-2-(pyrrolidin-1-yl-carbonylmethyl)-2-(4-chlorophenylaminocarbonylamino)-acetamide]"
18,≥ 500,CCOC(=O)C1CCN(C(=O)CC(NC(=O)Nc2ccc(Cl)cc2)C(=O)Nc2ccc(C3=NCCN3C)cc2)CC1 (stereo not drawn) [Example 67]
19,≥ 500,"CN1CCN=C1c1ccc(NC(=O)C(CC(=O)N2CCCCCC2)NC(=O)Nc2ccc(Cl)cc2)cc1 (stereo not drawn) [Example 68, N-[4-(1-methyl-4,5-dihydro-1H-imidazol-2-yl)phenyl]-2-(homopiperidin-1-ylcarbonylmethyl)-2-(4-chlorophenylaminocarbonylamino)-acetamide]"
20,≥ 500,"CN1CCN=C1c1ccc(NC(=O)C(CC(=O)NCc2ccccc2)NC(=O)Nc2ccc(Cl)cc2)cc1 (stereo not drawn) [Example 69, N-[4-(1-methyl-4,5-dihydro-1H-imidazol-2-yl)phenyl]-2-(benzylamino-carbonylmethyl)-2-(4-chlorophenylaminocarbonylamino)-acetamide]"
21,100 to 500,"CNC(=O)CC(NC(=O)Nc1ccc(Cl)cc1)C(=O)Nc1ccc(C2=NCCN2C)cc1 (stereo not drawn) [Example 70, N-[4-(1-methyl-4,5-dihydro-1H-imidazol-2-yl)phenyl]-2-(methylamino-carbonylmethyl)-2-(4-chlorophenylaminocarbonylamino)-acetamide]"
22,≥ 500,"CN1CCN=C1c1ccc(NC(=O)C(CC(N)=O)NC(=O)Nc2ccc(Cl)cc2)cc1 (stereo not drawn) [Example 71, N-[4-(1-methyl-4,5-dihydro-1H-imidazol-2-yl)phenyl]-2-(aminocarbonylmethyl)-2-(4-chlorophenylaminocarbonylamino)-acetamide]"
23,100 to 500,"CN1CCN=C1c1ccc(N2C(=O)CC(NC(=O)Nc3ccc(Cl)cc3)C2=O)cc1 (stereo not drawn) [Example 72, N-[4-(1-methyl-4,5-dihydro-1H-imidazol-2-yl)phenyl]-3-(4-chlorophenylaminocarbonylamino)-succinimide]"
24,100 to 500,"CN1CCN=C1c1ccc(NC(=O)C(CC(=O)Nc2ccccc2)NC(=O)Nc2ccc(Cl)cc2)cc1 (stereo not drawn) [Example 73, N-[4-(1-methyl-4,5-dihydro-1H-imidazol-2-yl)phenyl]-2-(phenylamino-carbonylmethyl)-2-(4-chlorophenylaminocarbonylamino)-acetamide]"
